Drawing on patent US10894788B2, “Inhibitors of cyclin-dependent kinases” (Kinnate Biopharma Inc., priority 2018, dated 2021), this text covers IC50 for 24 molecules.

The structures appear in SMILES notation.

CDK12 wt/CycK, sequence (Q9NYV4 whole entry): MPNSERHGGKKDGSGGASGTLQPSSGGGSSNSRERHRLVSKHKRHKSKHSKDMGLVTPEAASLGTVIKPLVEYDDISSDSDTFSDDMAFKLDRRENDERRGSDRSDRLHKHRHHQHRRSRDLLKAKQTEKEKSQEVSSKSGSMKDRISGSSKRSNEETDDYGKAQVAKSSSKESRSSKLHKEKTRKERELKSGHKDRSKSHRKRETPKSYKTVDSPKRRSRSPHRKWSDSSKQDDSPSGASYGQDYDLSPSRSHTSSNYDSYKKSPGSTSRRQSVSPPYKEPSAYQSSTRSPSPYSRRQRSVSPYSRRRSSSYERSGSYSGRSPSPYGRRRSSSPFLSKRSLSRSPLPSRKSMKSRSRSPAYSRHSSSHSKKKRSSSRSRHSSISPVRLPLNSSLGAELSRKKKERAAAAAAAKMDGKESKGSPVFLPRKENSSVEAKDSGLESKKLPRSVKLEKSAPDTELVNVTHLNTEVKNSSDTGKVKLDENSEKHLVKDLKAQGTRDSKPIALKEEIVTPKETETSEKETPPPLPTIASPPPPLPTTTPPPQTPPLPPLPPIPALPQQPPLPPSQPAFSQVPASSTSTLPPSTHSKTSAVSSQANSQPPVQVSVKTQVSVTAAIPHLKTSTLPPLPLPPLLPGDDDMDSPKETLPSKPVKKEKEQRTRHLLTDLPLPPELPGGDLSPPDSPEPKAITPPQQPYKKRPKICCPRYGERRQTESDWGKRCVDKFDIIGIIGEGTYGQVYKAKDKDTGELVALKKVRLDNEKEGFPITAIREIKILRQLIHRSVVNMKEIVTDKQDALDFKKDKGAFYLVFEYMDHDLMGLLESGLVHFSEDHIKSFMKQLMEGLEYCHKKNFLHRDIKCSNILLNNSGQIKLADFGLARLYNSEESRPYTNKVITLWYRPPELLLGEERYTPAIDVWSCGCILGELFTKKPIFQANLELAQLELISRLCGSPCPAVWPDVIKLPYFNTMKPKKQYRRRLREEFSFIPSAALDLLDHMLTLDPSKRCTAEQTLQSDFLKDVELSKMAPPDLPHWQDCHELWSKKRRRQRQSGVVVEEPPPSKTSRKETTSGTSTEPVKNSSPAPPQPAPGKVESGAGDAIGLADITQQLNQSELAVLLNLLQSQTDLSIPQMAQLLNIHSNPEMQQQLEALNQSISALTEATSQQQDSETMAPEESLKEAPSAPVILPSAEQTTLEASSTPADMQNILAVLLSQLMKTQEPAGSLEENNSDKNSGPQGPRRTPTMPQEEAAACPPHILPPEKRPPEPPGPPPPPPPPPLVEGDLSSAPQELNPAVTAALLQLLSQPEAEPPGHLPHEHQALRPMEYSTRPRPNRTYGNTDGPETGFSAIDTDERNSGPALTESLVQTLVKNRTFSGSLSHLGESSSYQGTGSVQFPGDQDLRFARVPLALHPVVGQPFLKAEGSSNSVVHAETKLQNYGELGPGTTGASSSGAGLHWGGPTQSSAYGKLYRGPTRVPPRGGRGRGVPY
CDK12 wt/CycK, sequence (O75909 whole entry partner): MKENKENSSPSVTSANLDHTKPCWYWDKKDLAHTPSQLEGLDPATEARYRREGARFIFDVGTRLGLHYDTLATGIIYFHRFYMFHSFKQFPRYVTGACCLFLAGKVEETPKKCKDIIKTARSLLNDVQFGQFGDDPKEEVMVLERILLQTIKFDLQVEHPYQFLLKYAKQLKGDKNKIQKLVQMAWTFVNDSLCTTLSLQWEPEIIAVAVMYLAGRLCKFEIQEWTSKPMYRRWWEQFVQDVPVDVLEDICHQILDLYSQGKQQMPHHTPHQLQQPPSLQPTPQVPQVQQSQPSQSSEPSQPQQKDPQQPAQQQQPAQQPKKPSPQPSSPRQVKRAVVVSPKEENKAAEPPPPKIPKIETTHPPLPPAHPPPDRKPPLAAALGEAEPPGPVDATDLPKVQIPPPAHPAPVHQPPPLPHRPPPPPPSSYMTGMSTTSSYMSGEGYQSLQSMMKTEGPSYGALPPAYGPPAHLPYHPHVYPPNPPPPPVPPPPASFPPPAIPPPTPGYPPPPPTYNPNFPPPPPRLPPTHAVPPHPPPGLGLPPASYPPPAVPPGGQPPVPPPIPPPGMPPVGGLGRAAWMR

One assay has as its target CDK12 wt/CycK (Homo sapiens (Human), UniProt Q9NYV4). Nature of the assay: Radiometric protein kinase assay (33PanQinase Activity Assay), Assay Condition A (thiol containing conditions). Format: biochemical.
Settings: not given
How it is done:
Example 1—Assay Condition A (Thiol Containing Conditions)
Objective: The IC50 profile of test compounds was determined using three protein kinases.
Test compounds: The compounds were provided as pre-weighed powders in vials. The compounds were dissolved to 1×10^−02M by adding DMSO. 100 μl of each of the resulting stock solutions were transferred into column 2 of four 96 well “master plates”.
Prior to testing, the 1×10^−02M stock solutions in column 2 of the master plates were subjected to a serial, semi-logarithmic dilution using 100% DMSO as a solvent. […] Column 1 and 7 were filled with 100% DMSO as controls. Subsequently, 2×10 μl from each well of the serial diluted copy plates were aliquoted with a 96 channel pipettor into two identical sets of “compound dilution plates”.
In the process, 90 μl H2O were added to each well of a set of compound dilution plates. To minimize potential precipitation, the H2O was added to each plate only a few minutes before the transfer of the compound solutions into the assay plates. Each plate was shaken thoroughly, resulting in a “compound dilution plate/10% DMSO”.
For the assays, 5 μl solution from each well of the compound dilution plates/10% DMSO were transferred into the assay plates. The final volume of the assay was 50 μl. All compounds were tested at 10 final assay concentrations in the range from 1×10^−04M to 3×10^−09M, in singlicate. The final DMSO concentration in the reaction cocktails was 1% in all cases.
Recombinant protein kinases: All protein kinases were expressed in Sf9 insect cells or in E. coli as recombinant GST-fusion proteins or His-tagged proteins, either as full-length or enzymatically active fragments. All kinases were produced from human cDNAs and purified by either GSH-affinity chromatography or immobilized metal. Affinity tags were removed from a number of kinases during purification. The purity of the protein kinases was examined by SDS-PAGE/Coomassie staining, the identity was checked by mass spectroscopy.
Protein kinase assay: A radiometric protein kinase assay (^33PanQinase® Activity Assay) was used for measuring the kinase activity of the three protein kinases. All kinase assays were performed in 96-well FlashPlates™ from PerkinElmer (Boston, Mass., USA) in a 50 μl reaction volume. The reaction cocktail was pipetted in four steps in the following order: • 20 μl of assay buffer (standard buffer) • 5 μl of ATP solution (in H2O) • 5 μl of test compound (in 10% DMSO) • 20 μl enzyme/substrate mix
The following amounts of enzyme and substrate were used per well:
The reaction cocktails were incubated at 30° C. for 60 minutes. The reaction was stopped with 50 μl of 2% (v/v) H3PO4, plates were aspirated and washed two times with 200 μl 0.9% (w/v) NaCl. Incorporation of ^33Pi was determined with a microplate scintillation counter (Microbeta, Wallac). All assays were performed with a BeckmanCoulter/SAGIAN™ Core System.
Evaluation of raw data: The median value of the counts in column 1 (n=8) of each assay plate was defined as “low control”. This value reflects unspecific binding of radioactivity to the plate in the absence of a protein kinase but in the presence of the substrate. The median value of the counts in column 7 of each assay plate (n=8) was taken as the “high control”, i.e. full activity in the absence of any inhibitor. The difference between high and low control was taken as 100% activity.
As part of the data evaluation the low control value from a particular plate was subtracted from the high control value as well as from all 80 “compound values” of the corresponding plate. The residual activity (in %) for each well of a particular plate was calculated by using the following formula: Res. Activity (%)=100×[(cpm of compound−low control)/(high control−low control)]
The residual activities for each concentration and the compound IC50 values were calculated using Quattro Workflow V3.1.1 (Quattro Research GmbH, Munich, Germany).
Molecule `C=CC(=O)Nc1ccc(C(=O)N2CC[C@@H](Nc3ncc(C#N)cn3)C2)cc1OCCN(C)C` [Example 166, (R)—N-(4-(3-((5-cyanopyrimidin-2-yl)amino)pyrrolidine-1-carbonyl)-2-(2-(dimethylamino)ethoxy)phenyl)acrylamide] showed an IC50 of 100 to 1000 nM.

As to `[2H]C([2H])([2H])Oc1nc(N[C@@H]2CCN(C(=O)c3ccc(NC(=O)C#C)cc3)C2)ncc1Cl` [Example 154, (R)—N-(4-(3-((5-chloro-4-(trideuteromethoxy)pyrimidin-2-yl)amino)pyrrolidine-1-carbonyl)phenyl)propiolamide], the IC50 was < 100 nM.

The assay is the same for the next values; noted with them: thiol containing conditions (1.2 mM DTT), ATP 0.3 μM; read-out: CDK12 IC50 Condition A.
`C=CC(=O)Nc1ccc(C(=O)N2CC[C@@H](Nc3ncc(Cl)cn3)C2)cc1N1CCC(N(C)C)C1` (stereo partly drawn) [Example 127, N-(4-((R)-3-((5-chloropyrimidin-2-yl)amino)pyrrolidine-1-carbonyl)-2-(3-(dimethylamino)pyrrolidin-1-yl)phenyl)acrylamide]: the concentration for half-maximal inhibition (IC50) is 100 to 1000 nM.

Take `C=CC(=O)Nc1ccc(C(=O)N2CC[C@@H](Nc3ncc(C#N)c(OC)n3)C2)cc1` [Example 160, (R)—N-(4-(3-((5-cyano-4-methoxypyrimidin-2-yl)amino)pyrrolidine-1-carbonyl)phenyl)acrylamide]: the IC50 is 10000 to 30000 nM.

As for `C=CC(=O)Nc1ccc(C(=O)N2CC[C@@H](Nc3ncc(Cl)c(OCC)n3)C2)nc1` [Example 152, (R)—N-(6-(3-((5-chloro-4-ethoxypyrimidin-2-yl)amino)pyrrolidine-1-carbonyl)pyridin-3-yl)acrylamide], the IC50 was < 100 nM.

For `O=C(c1cccc(N2C(=O)C=CC2=O)c1)N1CC[C@@H](Nc2ncc(Cl)cn2)C1` [Example 116, (R)-1-(3-(3-((5-chloropyrimidin-2-yl)amino)pyrrolidine-1-carbonyl)phenyl)-1H-pyrrole-2,5-dionefuran-2,5-dione], the IC50 fell in the range of 1000 to 10000 nM.

For `COc1nc(N[C@@H]2CCN(C(=O)c3ccc(NC(=O)/C=C/CN4CCC[C@@H](F)C4)cn3)C2)ncc1Cl` [Example 176, (E)-N-(6-((R)-3-((5-chloro-4-methoxypyrimidin-2-yl)amino)pyrrolidine-1-carbonyl)pyridin-3-yl)-4-((R)-3-fluoropiperidin-1-yl)but-2-enamide], the IC50 lay within 100 to 1000 nM.

In the case of `C/C=C/C(=O)Nc1ccc(C(=O)N2CC[C@@H](Nc3ncc(Cl)c(OC)n3)C2)nc1` [Example 150, (R,E)-N-(6-(3-((5-chloro-4-methoxypyrimidin-2-yl)amino)pyrrolidine-1-carbonyl)pyridin-3-yl)but-2-enamide], the IC50 was 100 to 1000 nM.

As to `C=CC(=O)Nc1ccc(C(=O)N2CC[C@@H](Nc3ncc(Cl)c(N)n3)C2)cc1` [Example 90, (R)—N-(4-(3-((4-amino-5-chloropyrimidin-2-yl)amino)pyrrolidine-1-carbonyl)phenyl)acrylamide], the 50% inhibitory concentration (IC50) was < 100 nM.

With `C=CC(=O)Nc1ccc(C(=O)N2C[C@H](Nc3ncc(Cl)c(OC)n3)C[C@@H]2C)cc1` [Example 180, N-(4-((2S,4R)-4-((5-chloro-4-methoxypyrimidin-2-yl)amino)-2-methylpyrrolidine-1-carbonyl)phenyl)acrylamide], the IC50 was < 100 nM.

In the case of `C=CC(=O)N1CCc2ccc(C(=O)N3CC[C@@H](Nc4ncc(Cl)cn4)C3)cc21` [Example 136, (R)-1-(6-(3-((5-chloropyrimidin-2-yl)amino)pyrrolidine-1-carbonyl)indolin-1-yl)prop-2-en-1-one], the IC50 fell in the range of 100 to 1000 nM.

For the molecule `COc1nc(N[C@@H]2CCN(C(=O)c3ccc(NC(=O)/C=C/CN(C)C)cc3)C2)ncc1Cl` [Example 115, (R,E)-N-(4-(3-((5-chloro-4-methoxypyrimidin-2-yl)amino)pyrrolidine-1-carbonyl)phenyl)-4-(dimethylamino)but-2-enamide], the half-inhibitory concentration (IC50) fell in the range of 100 to 1000 nM.

Turning to `CN(C)/C=C(\C#N)C(=O)Nc1ccc(C(=O)N2CC[C@@H](Nc3ncc(Cl)cn3)C2)cc1` [Example 134, (R)—N-(4-(3-((5-chloropyrimidin-2-yl)amino)pyrrolidine-1-carbonyl)phenyl)-2-cyano-3-(dimethylamino)acrylamide], the IC50 fell in the range of 100 to 1000 nM.

Take `CN(C)C=C(C#N)C(=O)Nc1cccc(C(=O)N2CC[C@@H](Nc3ncc(Cl)cn3)C2)c1` [Example 135, (R)—N-(3-(3-((5-chloropyrimidin-2-yl)amino)pyrrolidine-1-carbonyl)phenyl)-2-cyano-3-(dimethylamino)acrylamide]: the IC50 fell in the range of 1000 to 10000 nM.

Consider `O=C(c1ccc(N2C(=O)C=CC2=O)cc1)N1CC[C@@H](Nc2ncc(Cl)cn2)C1` [Example 140, (R)-1-(4-(3-((5-chloropyrimidin-2-yl)amino)pyrrolidine-1-carbonyl)phenyl)-1H-pyrrole-2,5-dione], for which the IC50 is 1000 to 10000 nM.

As for `C=CC(=O)Nc1ccc(C(=O)N2CC[C@@H](Nc3ncc(Cl)c(Oc4ccccc4)n3)C2)cc1` [Example 95, (R)—N-(4-(3-((5-chloro-4-phenoxypyrimidin-2-yl)amino)pyrrolidine-1-carbonyl)phenyl)acrylamide], the IC50 was < 100 nM.

`C=CC(=O)N1CCc2cc(C(=O)N3CC[C@@H](Nc4ncc(Cl)cn4)C3)ccc2C1` [Example 132, (R)-1-(6-(3-((5-chloropyrimidin-2-yl)amino)pyrrolidine-1-carbonyl)-3,4-dihydroisoquinolin-2(1H)-yl)prop-2-en-1-one]: the IC50 fell in the range of 1000 to 10000 nM.

As to `C=CC(=O)Nc1ccc(C(=O)N2CC[C@@H](Nc3ncc(Cl)c(OCCO)n3)C2)cc1` [Example 137, (R)—N-(4-(3-((5-chloro-4-(2-hydroxyethoxy)pyrimidin-2-yl)amino)pyrrolidine-1-carbonyl)phenyl)acrylamide], the IC50 was < 100 nM.

As for `C=CC(=O)Nc1ccc(C(=O)N2CC[C@@H](Nc3ncc(Br)cn3)C2)cc1N1CCC(N(C)C)CC1` [Example 158, (R)—N-(4-(3-((5-bromopyrimidin-2-yl)amino)pyrrolidine-1-carbonyl)-2-(4-(dimethylamino)piperidin-1-yl)phenyl)acrylamide], the IC50 was in the range of 100 to 1000 nM.

In the case of `C=CC(=O)Nc1ccc(C(=O)N2CC[C@@H](Nc3ncc(Cl)c(OCCOC)n3)C2)cc1` [Example 88, (R)—N-(4-(3-((5-chloro-4-(2-methoxyethoxy)pyrimidin-2-yl)amino)pyrrolidine-1-carbonyl)phenyl)acrylamide], the IC50 is < 100 nM.

As to `C=CC(=O)Nc1ccc(C(=O)N2CC[C@@H](Nc3ncc(C#N)c(OC)n3)C2)cc1OCCN(C)C` [Example 165, (R)—N-(4-(3-((5-cyano-4-methoxypyrimidin-2-yl)amino)pyrrolidine-1-carbonyl)-2-(2-(dimethylamino)ethoxy)phenyl)acrylamide], the IC50 was < 100 nM.

For `COc1nc(N[C@@H]2CCN(C(=O)c3ccc(NC(=O)/C=C/CN4CC[C@@H](F)C4)cc3)C2)ncc1Cl` [Example 167, (E)-N-(4-((R)-3-((5-chloro-4-methoxypyrimidin-2-yl)amino)pyrrolidine-1-carbonyl)phenyl)-4-((R)-3-fluoropyrrolidin-1-yl)but-2-enamide], the IC50 is < 100 nM.

As to `COc1nc(N[C@@H]2CCN(C(=O)c3ccc(NC(=O)C4CO4)cc3)C2)ncc1Cl` (stereo partly drawn) [Example 142, N-(4-((R)-3-((5-chloro-4-methoxypyrimidin-2-yl)amino)pyrrolidine-1-carbonyl)phenyl)oxirane-2-carboxamide], the IC50 lay within 1000 to 10000 nM.

Consider `C=CC(=O)Nc1ccc(C(=O)N2CC[C@@H](Nc3ncc(Cl)c(O)n3)C2)cc1` [Example 97, (R)—N-(4-(3-((5-chloro-4-hydroxypyrimidin-2-yl)amino)pyrrolidine-1-carbonyl)phenyl)acrylamide], for which the IC50 was in the range of 30000 to 100000 nM.

As usually defined, the IC50 is the concentration at which inhibition is half-maximal.
